Results taken from BindingDB's records for doi:10.1021/jm5003759 (University of Copenhagen, 2014).

Molecular target: T1, 5-hydroxytryptamine receptor 2C (Homo sapiens, UniProt P28335)
T1 sequence (P28335 whole entry): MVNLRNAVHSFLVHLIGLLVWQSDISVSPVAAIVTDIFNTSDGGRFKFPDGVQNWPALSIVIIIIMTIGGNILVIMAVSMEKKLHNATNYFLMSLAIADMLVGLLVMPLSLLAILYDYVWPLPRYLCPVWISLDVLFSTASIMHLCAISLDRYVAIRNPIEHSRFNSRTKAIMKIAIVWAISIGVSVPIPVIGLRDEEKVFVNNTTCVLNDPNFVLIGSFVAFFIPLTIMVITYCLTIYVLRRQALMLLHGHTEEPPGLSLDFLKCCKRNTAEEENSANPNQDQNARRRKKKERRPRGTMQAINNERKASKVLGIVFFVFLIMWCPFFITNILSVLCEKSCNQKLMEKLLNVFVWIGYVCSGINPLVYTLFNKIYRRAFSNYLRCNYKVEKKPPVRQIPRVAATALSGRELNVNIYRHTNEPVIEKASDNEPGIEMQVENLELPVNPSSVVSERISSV
Assay: Displacement of [3H]5-HT from human recombinant 5-HT2C receptor expressed in mouse 3T3 cells

Ki: 2040 nM
Structure (SMILES): CNc1cc(NS(=O)(=O)c2ccc(N)cc2)cc(NC)n1 [Ro-63-0563]
